Values joined by “and” are separate entries in the source; they are usually repeats but may differ in a detail not shown here. Equal values may be shown once.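 Protocol summary: plate cells (96-well), add compound at 5 concentrations, incubate 48 h, interpolate endpoints linearly. Here, GI50 denotes the concentration required for 50% inhibition of growth. TGI denotes the concentration required for complete inhibition of growth.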
Assays:
Assay in all cases: inhibition of tumour cell growth, NCI panel, 48 h
[1] = system: HL-60(TB) leukemia
[2] = system: 786-0 renal
[3] = system: LOX IMVI melanoma
[4] = system: MDA-MB-435
[5] = system: HCT-15 colon
[6] = system: CCRF-CEM leukemia
[7] = system: SF-539 CNS
[8] = system: NCI-H23 lung
[9] = system: SK-OV-3 ovarian
[10] = system: NCI-H460 lung

Compound	GI50 [1]	TGI [1]	GI50 [2]	TGI [2]	GI50 [3]	TGI [3]	GI50 [4]	TGI [4]	GI50 [5]	TGI [5]	GI50 [6]	TGI [6]	GI50 [7]	TGI [7]	GI50 [8]	TGI [8]	GI50 [9]	TGI [9]	GI50 [10]	TGI [10]
COc1c(C(N)=O)cc(-c2ccc(Cl)cc2)cc1-c1ccc(S(N)(=O)=O)cc1	7.19 µM	> 17.9 µM	12.5 µM	> 25 µM	12.4 µM	> 25 µM	11.4 µM	> 25 µM	9.66 µM	> 25 µM	8.53 µM	> 25 µM	14.2 µM	> 25 µM	> 18.3 µM	> 25 µM	> 22 µM	> 25 µM	11.5 µM	> 25 µM
COc1cc2[nH]c3c(c2cc1OC)CCN[C@@]31CC[C@@]2(CC3c4c(cc(OC)c(O)c42)CCN3C)C[C@@H]1OC (stereo not given in full)	–	30.7 µM	–	> 100 µM	–	41.4 µM	–	41.4 µM	–	> 100 µM	–	94.5 µM	–	28.4 µM	–	> 100 µM	–	> 100 µM	–	> 100 µM
C[C@@H]1CC[C@@H]2[C@@H]1[C@H](OC(=O)/C=C/C1CCCCC1)[C@]1(C3CCCCC3)C[C@@H](OC(=O)CO)[C@@]2(C)O1	16.3 µM	35.3 µM	12 µM	24.1 µM	14.3 µM	27.1 µM	15.5 µM	31 µM	14 µM	26.7 µM	16.4 µM	34.7 µM	14.3 µM	27.9 µM	16.6 µM	31.7 µM	15 µM	27.7 µM	14.6 µM	30 µM
O=C1C2=C(C(=O)c3ccccc31)C(O)(S(=O)(=O)O)C(O)(S(=O)(=O)O)C1N=CC=CC21 (stereo not given)	7.83 µM and 4.13 µM	> 100 µM and 20.6 µM	5.03 µM and 4.29 µM	25 µM and 17.4 µM	3.1 µM and 2.84 µM	54.9 µM and 20.3 µM	4.56 µM and 3.56 µM	80.5 µM and 24.8 µM	3.47 µM and 2.15 µM	> 100 µM	6.47 µM	> 100 µM	4.01 µM and 3.89 µM	19.9 µM and 18.1 µM	3.87 µM and 3.49 µM	27.6 µM and 18.8 µM	4.61 µM and 8.35 µM	38.3 µM and 32.4 µM	2.84 µM and 1.39 µM	11.7 µM and 6.25 µM
CC(C)(C)NCC(O)c1ccccc1Cl (stereo not given)	> 100 µM	> 100 µM	> 100 µM	> 100 µM	> 100 µM	> 100 µM	> 100 µM	> 100 µM	> 100 µM	> 100 µM	> 100 µM	> 100 µM	> 100 µM	> 100 µM	> 100 µM	> 100 µM	> 100 µM	> 100 µM	> 100 µM	> 100 µM
CC12CCC(C1)C(C)(C)C2OC(=O)c1ccccc1N (stereo not given)	–	28.6 µM	–	33.5 µM	–	33.8 µM	–	31.2 µM	–	33.7 µM	–	3.96 µM	–	33.7 µM	–	31.2 µM	–	30.3 µM	–	30.7 µM
COC(=O)Nc1nc2ccc(C(=O)c3cccc(I)c3)cc2[nH]1	0.0315 µM	0.163 µM	0.0848 µM	6.15 µM	0.0612 µM	3.92 µM	0.0211 µM	0.051 µM	0.0459 µM	13.2 µM	0.0402 µM	5.26 µM	0.0589 µM	0.384 µM	0.183 µM	21.1 µM	0.257 µM	28.6 µM	0.0407 µM	4.33 µM
CC(=O)OC1CC2(C)C(=CC1C1SCCS1)CCC1C2CCC2(C)C(OC(C)=O)CCC12 (stereo not given)	–	> 100 µM	–	> 100 µM	–	> 100 µM	–	> 100 µM	–	> 100 µM	–	> 100 µM	–	> 100 µM	–	> 100 µM	–	> 100 µM	–	> 100 µM
Clc1cnc(Nc2ccc(OCCN3CCCC3)cc2)nc1NCc1ccco1	1.03 µM	5.01 µM	3.15 µM	13.3 µM	1.16 µM	4.26 µM	2.73 µM	11.5 µM	2.72 µM	11.8 µM	2.54 µM	9.5 µM	1.67 µM	3.64 µM	1.84 µM	5.75 µM	3.62 µM	34.1 µM	2.04 µM	5.36 µM
NC1CC(=O)c2c(-c3cccs3)sc(-c3cccs3)c21 (stereo not given)	20.5 µM	61.1 µM	11.7 µM	> 100 µM	12.7 µM	29 µM	38.8 µM	> 100 µM	3.04 µM	22.4 µM	3.89 µM	> 100 µM	21.3 µM	47.6 µM	23.1 µM	57.6 µM	> 100 µM	> 100 µM	38.7 µM	> 100 µM
COc1cc2ncnc(Oc3ccc(NC(=O)Nc4ccc(CN5CCOCC5)c(C(F)(F)F)c4)c4ccccc34)c2cc1OC	0.502 µM	2.76 µM	0.831 µM	6.74 µM	1.09 µM	2.82 µM	0.436 µM	2.83 µM	1.04 µM	4.7 µM	1.18 µM	40.7 µM	1.36 µM	16.1 µM	0.785 µM	4.16 µM	0.254 µM	1.26 µM	1.37 µM	3.64 µM

— PubChem BioAssay (NCI)
